Experimental data as given in patent US7220764B2, “Sphingosine kinase inhibitors” (The Pennsylvania State University Research Foundation, priority 2002, dated 2007).
Where a name gives a salt, the structure may show the parent alone. Read-outs that look alike come from different tables or passages of the source.

Tests used:
[1] = tested on: T-24 human bladder carcinoma cells; assay: Cytotoxicity, SRB binding assay, T24; type: cell-based; settings: 48 h treatment, mean ± SD
Procedure: (§1) The SK inhibitor compounds of the invention are antiproliferative and induce apoptosis in replicating cells. In order to assess the compounds' efficacy in intact cells, the compounds were evaluated for cytotoxicity using a panel of human cancer cell lines. These experiments followed methods that have been extensively used (see for, example, Smith et al., Cancer Res. 54: 3779–3784 (1994); Smith et al., Oncology Res. 6: 211–218 (1994); and Lawrence et al., J. Med. Chem. 44: 594–601 (2001). Cell lines tested included T-24 human bladder carcinoma cells, MCF-7 human breast adenocarcinoma cells, MCF-7/VP cells, which are a subline of MCF-7 cells that is resistant to several anticancer drugs due to overexpression of the transport protein MRP 1, and NCI/ADR, a cell line resistant to many anticancer drugs due to overexpression of the drug transporter P-glycoprotein.
(§2) The indicated cell lines were treated with varying doses of compounds 1–4 for 48 h. Cell survival was then determined using the SRB binding assay (Skehan et al., 1990, J. Natl. Cancer Inst. 82: 1107–1112), and the concentration of compound that inhibited proliferation by 50% was calculated. Values represent the mean ±SD for replicate samples.
(§3) As these transporters are often overexpressed in tumor cells, particularly after the patient has been treated with cytotoxic drugs, the SK inhibiting compounds of the invention are effective therapeutic agents for resistant tumors.

[2] = tested on: MCF-7/VP cells (MRP 1 overexpression); assay: Cytotoxicity, SRB binding assay, MCF-7/VP; type: cell-based; settings: Homo sapiens, MCF7-VP, 48 h treatment, mean ± SD
Procedure: as §1, §2, §3

[3] = molecular target: ERK2 (Homo sapiens, UniProt P28482); assay: Kinase selectivity panel: ERK2; type: biochemical; settings: for IC50: human isoform, mean ± SD of triplicate experiments, read-out: ERK2, concentration required to inhibit enzyme activity by 50%
Chain of ERK2 (P28482 whole entry, canonical isoform): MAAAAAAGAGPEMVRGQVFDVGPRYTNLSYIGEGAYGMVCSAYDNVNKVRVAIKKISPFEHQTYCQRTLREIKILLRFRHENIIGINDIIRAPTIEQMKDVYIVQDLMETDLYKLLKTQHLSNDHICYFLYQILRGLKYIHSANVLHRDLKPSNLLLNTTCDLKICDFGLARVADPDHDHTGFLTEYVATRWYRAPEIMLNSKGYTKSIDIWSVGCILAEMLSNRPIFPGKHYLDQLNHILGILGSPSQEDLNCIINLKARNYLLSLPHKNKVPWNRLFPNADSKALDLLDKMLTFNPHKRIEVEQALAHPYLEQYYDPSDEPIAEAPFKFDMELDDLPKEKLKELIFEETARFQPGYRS
Procedure: (§4) Thus potencies of each inhibitor were determined for human isoforms of ERK2, PI3K and PKCα. SK inhibition data is provided for comparison. Data represent the concentrations required to inhibit enzyme activity by 50%, and are the mean ±SD of triplicate experiments. Results designated as “None” indicate that no inhibition was detected at concentrations up to 60 μM.

[4] = molecular target: T1, PI3K; assay: Kinase selectivity panel: PI3K (lipid kinase); type: biochemical, human; settings: for IC50: human isoform, mean ± SD of triplicate experiments, read-out: PI3K, concentration required to inhibit enzyme activity by 50%
T1 construct: other: human isoform; mean ± SD of triplicate experimen; activity toward PI3K (in words)
Procedure: Thus potencies of each inhibitor were determined for human isoforms of ERK2, PI3K and PKCα. […] Data represent the concentrations required to inhibit enzyme activity by 50%, and are the mean ±SD of triplicate experiments. Results designated as “None” indicate that no inhibition was detected at concentrations up to 60 μM.

[5] = tested on: MCF-7 human breast adenocarcinoma cells; assay: Cytotoxicity, SRB binding assay, MCF-7; type: cell-based; settings: MCF7, 48 h treatment, mean ± SD
Procedure: as §1, §2, §3

[6] = molecular target: T2, recombinant human SK (Homo sapiens, UniProt Q9NYA1); assay: Sphingosine kinase screen / inhibition of recombinant human SK ([3H]sphingosine to [3H]S1P); type: biochemical; settings: for inhibition at 5 µg/mL: read-out: inhibited SK activity by %; for IC50: mean ± SD of triplicate experiments, read-out: SK, concentration required to inhibit enzyme activity by 50%
T2 construct: glutathione-S-transferase (GST); made in house; host or cells: bacteria (PGEX bacterial expression vector, Pharmacia)
T2 sequence (Q9NYA1 whole entry): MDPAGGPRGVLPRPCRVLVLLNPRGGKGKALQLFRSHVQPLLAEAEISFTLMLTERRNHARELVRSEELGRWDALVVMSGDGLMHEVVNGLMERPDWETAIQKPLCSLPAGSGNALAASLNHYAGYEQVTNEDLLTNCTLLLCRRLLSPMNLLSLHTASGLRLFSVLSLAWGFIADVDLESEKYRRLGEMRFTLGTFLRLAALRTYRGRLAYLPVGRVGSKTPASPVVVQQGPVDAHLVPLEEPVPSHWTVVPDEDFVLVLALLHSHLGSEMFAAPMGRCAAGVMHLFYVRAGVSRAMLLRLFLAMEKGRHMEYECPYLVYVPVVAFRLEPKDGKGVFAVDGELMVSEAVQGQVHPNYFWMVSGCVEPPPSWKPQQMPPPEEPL
Procedure: This method involved incubating [^3H]sphingosine with 1 mM ATP under conditions defined in the reference, followed by extraction of the assay mixture with chloroform:methanol (2:1) under basic conditions. […] Radioactivity in aliquots of the aqueous phase was then quantified as a measure of [^3H]S1P formation.
Varying concentrations of the indicated compounds were evaluated for inhibition of recombinant human SK as described above.

[7] = tested on: NCI/ADR cells (P-glycoprotein overexpression); assay: Cytotoxicity, SRB binding assay, NCI/ADR; type: cell-based; settings: Homo sapiens, NCI/ADR-RES, 48 h treatment, mean ± SD
Procedure: as §1, §2, §3

[8] = molecular target: PKCα (Homo sapiens, UniProt P17252); assay: Kinase selectivity panel: PKCα; type: biochemical; settings: for IC50: human isoform, mean ± SD of triplicate experiments, read-out: PKCα, concentration required to inhibit enzyme activity by 50%
Procedure: as §4

[9] = tested on: mouse JC mammary adenocarcinoma cells; assay: Antitumor activity in syngeneic tumor model; type: in vivo, Balb/c mice; settings: 75 mg/kg intraperitoneally on days 1, 5, 9 and 15
Procedure: These cells express elevated levels of SK activity relative to non-transformed cells, as well as the multidrug resistance phenotype due to P-glycoprotein activity (data not shown). Balb/c mice, 6–8 weeks old, were injected subcutaneously with […] suspended in PBS. […] The insert indicates the body weight of the animals during this experiment.

[10] = 5 μg/ml of compound (corresponds to 10–25 μM), 1 mM ATP

| SMILES | IC50 [1] | IC50 [2] | IC50 [3] | IC50 [4] | IC50 [5] | inhibition at 5 µg/mL [6, 10] | IC50 [7] | IC50 [8] | also measured |
| --- | --- | --- | --- | --- | --- | --- | --- | --- | --- |
| COc1ccc(N2C(=O)/C(=C\c3ccc(O)cc3O)SC2=S)cc1 [Compound 1, 5-(2,4-Dihydroxy-benzylidene)-3-(4-methoxy-phenyl)-2-thioxo-thiazolidin-4-one] | 5.8 ± 1.5 µM | 24.6 ± 1.9 µM | 26 ± 2 µM | 42 ± 10 µM | 6.8 ± 1.5 µM | 99% | 6.2 ± 1.5 µM | > 60 µM | IC50 [6]: 2.5 ± 0.7 µM |
| O=C(N/N=C/c1c(O)ccc2ccccc12)c1cc(-c2ccc3ccccc3c2)n[nH]1 [Compound 2, 5-Naphthalen-2-yl-2H-pyrazole-3-carboxylic acid (2-hydroxy-naphthalen-1-ylmethylene)-hydrazide] | 1.1 ± 1.2 µM | 2.9 ± 2 µM | 11 ± 1 µM | > 60 µM | 0.4 µM | – | 0.8 ± 1.3 µM | > 60 µM | fold less potent toward ERK2 than SK ([3]; ERK2 versus SK): 10 fold; IC50 [6]: 1.2 ± 0.3 µM; inhibition at 5 µg/mL [6]: 85% |
| Oc1ccc(Nc2nc(-c3ccc(Cl)cc3)cs2)cc1 [Compound 3, 4-[4-(4-Chloro-phenyl)-thiazol-2-ylamino]-phenol] | 4.6 ± 1.6 µM | 0.9 ± 1.8 µM | > 60 µM | > 60 µM | 1.2 ± 1.3 µM | 99% | 1.3 ± 1.1 µM | > 60 µM | activity toward ERK2 (in words) [3]: no inhibition was seen; activity toward PI3K (in words) [4]: no inhibition was seen; inhibition of PKCα (in words) [8]: no inhibition was seen |
| O=C1/C(=C/c2ccc(O)c(O)c2)Sc2ccccc21 [Compound 4, 2-(3,4-Dihydroxy-benzylidene)-benzo [b] thiophen-3-one] | 7.8 ± 2 µM | 1.8 ± 1.1 µM | 40 ± 5 µM | 7 ± 2 µM | 1 ± 1.7 µM | 89% | 1.2 ± 2.4 µM | > 60 µM | activity toward ERK2 (in words) [3]: weak activity; activity toward PI3K (in words) [4]: moderate activity; IC50 [6]: 0.6 ± 0.1 µM |
| O=C1/C(=C/c2ccc(O)c(O)c2)Oc2ccccc21 [Compound 5, 2-(3,4-Dihydroxy-benzylidene)-benzofuran-3-one] | – | – | 80 ± 4 µM | – | – | – | – | > 60 µM | difference in body weights versus control group [9]: No significant difference; tumor growth decreased versus control animals ([9]; day 18, volume relative to day 1): > 50%; activity toward ERK2 (in words) [3]: weak activity; activity toward PI3K (in words) [4]: moderate activity |
| COc1ccc(-n2c(SCC(=O)Nc3nc4ccccc4s3)nc(O)cc2=O)cc1 [Compound 6, N-Benzothiazol-2-yl-2-[4-hydroxy-1-(4-methoxy-phenyl)-6-oxo-1,6-dihydro-pyrimidin-2-ylsulfanyl]-acetamide] | – | – | – | – | – | 91% | – | – | – |
| O=S(=O)(c1ccc(O)cc1)c1ccc(O)c(C23CC4CC(CC(C4)C2)C3)c1 [Compound 7, 2-(1-adamantyl)-4-[(4-oxidophenyl)sulfonyl]benzenolate disodium salt] | – | – | – | – | – | 91% | – | – | – |
| Cc1cc2nc3s/c(=C\c4cc(I)cc(I)c4O)c(=O)n3c2cc1C [Compound 8, 2-(2-Hydroxy-3,5-diiodo-benzylidene)-6,7-dimethyl-benzo[4,5] imidazo [2,1-b] thiazol-3-one] | – | – | – | – | – | 98% | – | – | – |
| N#C/C(=C\c1ccc(O)c(O)c1)c1nc(-c2ccc3c(c2)OCO3)cs1 [Compound 9, 2-(4-Benzo[1,3]dioxol-5-yl-thiazol-2-yl)-3-(3,4-dihydroxy-phenyl)-acrylonitrile] | – | – | – | – | – | 94% | – | – | – |
| CCOc1ccc2c(c1)NC(C)(C)c1ss/c(=N/c3ccc(O)cc3)c1-2 [Compound 10, 4-(7-Ethoxy-4,4-dimethyl-4,5-dihydro-2,3-dithia-5-aza-cyclopenta [α]naphthalen-1-ylideneamino)-phenol] | – | – | – | – | – | 81% | – | – | – |
| O=C(/C=C(O)/C(O)=C/C(=O)c1ccccc1)c1ccccc1 [Compound 11, 3,4 -Dihydroxy-1,6-diphenyl-hexa-2,4-diene-1,6-dione] | – | – | – | – | – | 98% | – | – | – |
| CCc1cc2c(s1)[S][Zn]1([N]=C2)[N]=Cc2cc(CC)sc2[S]1 [Compound 12] | – | – | – | – | – | – | – | – | inhibition at 5 µg/mL [6]: 87% |
| CCCCCCCCCCCCC/C=C/[C@@H](O)[C@H](CO)N(C)C [dimethylsphingosine, reference compound] | – | – | – | – | – | – | – | – | inhibition of SK activity by positive control ([6]; at concentrations above 25 μM): completely inhibited |
